Measured values: PMC12305494, “Discovery of PXR Antagonist MI891 and PXR Degrader MI1013 and Their Roles in Hepatic Gene Regulation” (Journal of Medicinal Chemistry, 2025)
Where “and” joins values, the source holds several entries; their conditions need not be identical. Identical values can stand only once.

How the values were obtained:
[1] = target: T1, CAR3 variant (Homo sapiens, UniProt Q14994, DEL233-236); experiment: CAR3 variant luciferase reporter assay; assay type: cell-based; conditions: at concentrations up to 10 μM
T1 construct: expressed in transfected cells
Experimental: (§1) Rhesus monkey, mouse, and rat PXR expression vectors (100 ng/well each) were also obtained from GenScript. […] Carlberg (University of Kuopio, Kuopio, Finland).
(§2) The cells were cultured in DMEM medium (Merck) supplemented with 10% fetal bovine serum.

[2] = Plasma stability, human plasma; assay type: in vitro ADME; conditions: up to 120 min, read-out: Plasma stability, t1/2 (min), human
[3] = target: T2, LXRβ (Homo sapiens, UniProt P55055); experiment: LXRβ luciferase reporter assay, agonistic and antagonistic setups; assay type: cell-based; conditions: prototype ligand GW3965
T2 construct: expressed in transfected cells
Experimental: (§3) For the farnesoid X receptor (FXR) luciferase gene reporter assay, the full-length expression vector was paired with pFXRE-luc luciferase construct. The p1A1-luc construct was used in the aryl hydrocarbon receptor (AhR) assays with pRL-TK for normalization. Gal4-LXR-α/β, and Gal4-PPAR-γ constructs were used with the pGAL4 UAS-luc construct. For the VDR assay, expression vector pSG5-hVDR together with pVDRE-luc constructs was used. Firefly and Renilla luciferase activities were analyzed using a Dual reporter assay (Promega). For the nuclear receptor assays, prototype ligands were used at the following concentrations: Calcitriol for VDR (100 nM), GW3965 for LXRα and LXRβ (10 μM), 6-OCA for FXR (1 μM), fenofibrate for PPARα (10 μM), estradiol for ERα and β (10 μM), rosiglitazone for PPARγ (10 μM), 3-MC for AhR (5 μM), and TCPOBOP for mCAR (10 μM). Detailed descriptions and protocols are detailed in our recent publication. ,

[4] = target: PPARα (Homo sapiens, UniProt Q07869); experiment: PPARα luciferase reporter assay, agonistic and antagonistic setups; assay type: cell-based; conditions: prototype ligand fenofibrate
Experimental: as §3

[5] = test system: rodent PXRs; experiment: Rodent PXR orthologue luciferase reporter assays; assay type: cell-based, rat/mouse; conditions: PCN as prototypical inducer
Experimental: The CYP3A4 gene promoter luciferase reporter construct (p3A4-luc) bears a distal XREM (−7836/–7208) and a proximal promoter sequence (prPXRE, −362/+53) from the CYP3A4 gene promoter region. […] The human PXR expression vector (variant 1, NM_003889.3) as well as vectors for mouse, rat, and monkey orthologues were described in our recent paper (39). […] Rhesus monkey, mouse, and rat PXR expression vectors (100 ng/well each) were also obtained from GenScript. […] Carlberg (University of Kuopio, Kuopio, Finland).
as §2

[6] = target: CK2α2(h) (Homo sapiens, UniProt P19784); experiment: Off-target kinase panel; assay type: biochemical; conditions: MI891 @ 1 µM
Experimental: (§4) To evaluate the selectivity of MI891, an off-target profiling study was performed using a panel of 58 kinases.

[7] = target: EphA5(h) (Homo sapiens, UniProt P54756); experiment: Off-target kinase panel; assay type: biochemical; conditions: MI891 @ 1 µM
Experimental: as §4

[8] = target: T3, JAK2(h) (Homo sapiens, UniProt O60674); experiment: Off-target kinase panel; assay type: biochemical; conditions: MI891 @ 1 µM
T3 construct: purchased Eurofins (Millipore) KinaseProfiler, inferred from the naming style
Experimental: as §4

[9] = target: T4, Mnk2(h) (Homo sapiens, UniProt Q9HBH9); experiment: Off-target kinase panel; assay type: biochemical; conditions: MI891 @ 1 µM
T4 construct: purchased Eurofins (Millipore) KinaseProfiler, inferred from the naming style
Experimental: as §4

[10] = target: T5, PKCθ(h) (Homo sapiens, UniProt Q04759); experiment: Off-target kinase panel; assay type: biochemical; conditions: MI891 @ 1 µM
T5 construct: purchased Eurofins (Millipore) KinaseProfiler, inferred from the naming style
Experimental: as §4

[11] = target: T6, Rse(h) (Homo sapiens, UniProt Q06418); experiment: Off-target kinase panel; assay type: biochemical; conditions: MI891 @ 1 µM
T6 construct: purchased Eurofins (Millipore) KinaseProfiler, inferred from the naming style
Experimental: as §4

[12] = target: T7, SRPK1(h) (Homo sapiens, UniProt Q96SB4); experiment: Off-target kinase panel; assay type: biochemical; conditions: MI891 @ 1 µM
T7 construct: purchased Eurofins (Millipore) KinaseProfiler, inferred from the naming style
Experimental: as §4

[13] = target: c-RAF(h) (Homo sapiens, UniProt P04049); experiment: Off-target kinase panel; assay type: biochemical; conditions: MI891 @ 1 µM
Experimental: as §4

[14] = target: T8, PXR (Homo sapiens, UniProt O75469); experiment: cell-based
T8 sequence (O75469 1-434): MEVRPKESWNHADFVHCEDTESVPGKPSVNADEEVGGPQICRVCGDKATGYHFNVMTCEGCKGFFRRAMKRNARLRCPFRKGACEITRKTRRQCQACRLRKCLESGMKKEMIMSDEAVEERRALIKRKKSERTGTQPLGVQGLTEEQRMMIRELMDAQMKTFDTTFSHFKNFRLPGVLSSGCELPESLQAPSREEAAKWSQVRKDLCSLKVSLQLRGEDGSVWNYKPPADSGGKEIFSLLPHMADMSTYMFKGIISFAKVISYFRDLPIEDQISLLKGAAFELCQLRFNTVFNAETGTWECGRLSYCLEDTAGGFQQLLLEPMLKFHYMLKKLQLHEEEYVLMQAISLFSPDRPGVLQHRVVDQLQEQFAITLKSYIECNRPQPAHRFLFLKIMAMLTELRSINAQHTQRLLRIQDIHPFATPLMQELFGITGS
Experimental: The PXR activity was assessed as the PXR-dependent transcriptional activation using the construct. […] The control vector pRL-TK (Promega) constitutively expresses Renilla luciferase. […] Transient transfection experiments followed published protocols used in our laboratory and described before. , Luciferase reporter assays were conducted to evaluate interactions with PXR or CAR and their variants in HepG2, or COS-1. Cells were seeded at a density of 40,000 cells/cm^2 in 48-well plates (ThermoFisher Scientific) and maintained at 37 °C in a humidified atmosphere with 5% CO2. […] Following seeding, HepG2 cells were transfected with 150 ng/well of a luciferase reporter construct and 100 ng/well of a nuclear receptor expression vector using Lipofectamine 3000 (ThermoFisher Scientific) and with pRL-TK (30 ng/well) serving as the normalization control. After 24 h, cells were treated with test compounds for 24 h before cell lysis and subsequent firefly and Renilla luciferase activity analysis using the Dual-Glo Luciferase Assay System (Promega). […] The activities of test compounds were normalized to the respective controls to determine % activation or inhibition.

[15] = target: T9, PXR-HiBiT (Homo sapiens, UniProt O75469+Q96SW2); experiment: Nano-Glo HiBiT lytic assay in HepG2 cells; assay type: cell-based; conditions: HepG2, 10 μM, 8 h, 0.3 ng PXR-HiBiT vector
T9 construct: host or cells: HepG2
Experimental: For HiBiT assay, HepG2 cells (40,000 cells/well) were seeded in a 48-well plate. The following day, cells were transfected with 0.3–100 ng of PXR-HiBiT (GenScript-HiBiT_NR1I2_OHu23779D_pcDNA3.1+/C-(K)-DYK) and 0.3–100 ng of CRBN (GenScript-CRBN_OHu21180D_pcDNA3.1+/C-(K)-DYK) in a 1:1 ratio using Lipofectamine 3000 (ThermoFisher Scientific), following the manufacturer’s protocol. After 24 h, cells were treated with varying concentrations of MI1013, and vehicle (0.1% DMSO). The plates were incubated for 8 h, and the HiBiT NanoLuc signal was measured using the Nano-Glo HiBiT Lytic Detection System (Promega; […]) in a Synergy microplate reader (Biotek) under luminescence mode with a read time of 0.2 s/well, gain set as auto, and integration time 2 s. Results are reported as relative abundance or response (%) change relative to DMSO control cells. […] The DC50 value was calculated using a curve fit–log(inhibitor) vs response–with a variable slope (four-parameter) logistic fitting using GraphPad Prism.

[16] = target: T8, PXR; experiment: PXR-responsive CYP3A4 promoter luciferase reporter assay in HepG2, agonist mode; assay type: cell-based; set-up: expressed in transfected cells; host or cells: HepG2; conditions: HepG2, at concentrations up to 10 μM
Experimental: as §1, §2

T6 sequence (Q06418 41-890): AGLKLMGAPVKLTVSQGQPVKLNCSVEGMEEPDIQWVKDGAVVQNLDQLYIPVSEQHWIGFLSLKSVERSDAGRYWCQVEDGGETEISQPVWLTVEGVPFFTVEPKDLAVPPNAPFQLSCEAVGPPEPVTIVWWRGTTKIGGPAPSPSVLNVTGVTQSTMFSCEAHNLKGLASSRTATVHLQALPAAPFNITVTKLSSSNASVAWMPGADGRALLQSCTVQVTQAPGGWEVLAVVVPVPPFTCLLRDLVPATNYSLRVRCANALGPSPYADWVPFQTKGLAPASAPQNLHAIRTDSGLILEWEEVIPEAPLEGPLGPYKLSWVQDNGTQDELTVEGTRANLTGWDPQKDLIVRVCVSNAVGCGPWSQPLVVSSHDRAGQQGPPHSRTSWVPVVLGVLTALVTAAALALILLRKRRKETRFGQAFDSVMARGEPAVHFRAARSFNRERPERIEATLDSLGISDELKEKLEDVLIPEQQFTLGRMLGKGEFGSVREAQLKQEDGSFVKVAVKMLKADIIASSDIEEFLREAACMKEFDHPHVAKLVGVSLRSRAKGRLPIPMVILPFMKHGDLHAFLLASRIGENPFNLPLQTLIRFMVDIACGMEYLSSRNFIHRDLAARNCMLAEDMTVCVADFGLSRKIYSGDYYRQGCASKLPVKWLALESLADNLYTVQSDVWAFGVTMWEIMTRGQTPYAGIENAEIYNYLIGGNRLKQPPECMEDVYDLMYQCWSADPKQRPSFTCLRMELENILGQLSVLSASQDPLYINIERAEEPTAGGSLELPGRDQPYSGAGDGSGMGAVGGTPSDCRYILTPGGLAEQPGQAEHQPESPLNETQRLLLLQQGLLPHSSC
T7 sequence (Q96SB4 whole entry): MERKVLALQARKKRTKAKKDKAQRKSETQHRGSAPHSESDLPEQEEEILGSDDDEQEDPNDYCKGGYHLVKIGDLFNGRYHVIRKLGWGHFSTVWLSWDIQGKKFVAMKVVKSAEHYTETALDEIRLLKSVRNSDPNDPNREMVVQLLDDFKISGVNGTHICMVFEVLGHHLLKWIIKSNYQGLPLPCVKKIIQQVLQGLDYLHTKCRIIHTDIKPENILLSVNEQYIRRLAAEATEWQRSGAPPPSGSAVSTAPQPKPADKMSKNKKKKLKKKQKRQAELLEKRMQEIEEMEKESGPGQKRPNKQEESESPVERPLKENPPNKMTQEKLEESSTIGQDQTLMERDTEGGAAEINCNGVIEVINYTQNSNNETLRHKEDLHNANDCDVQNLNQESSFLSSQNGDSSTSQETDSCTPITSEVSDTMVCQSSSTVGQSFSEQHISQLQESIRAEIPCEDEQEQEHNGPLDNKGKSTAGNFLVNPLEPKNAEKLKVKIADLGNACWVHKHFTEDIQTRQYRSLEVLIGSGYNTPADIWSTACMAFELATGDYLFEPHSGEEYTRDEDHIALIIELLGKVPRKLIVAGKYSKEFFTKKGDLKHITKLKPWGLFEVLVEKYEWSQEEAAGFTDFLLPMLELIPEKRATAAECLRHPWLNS
T3 sequence (O60674 whole entry): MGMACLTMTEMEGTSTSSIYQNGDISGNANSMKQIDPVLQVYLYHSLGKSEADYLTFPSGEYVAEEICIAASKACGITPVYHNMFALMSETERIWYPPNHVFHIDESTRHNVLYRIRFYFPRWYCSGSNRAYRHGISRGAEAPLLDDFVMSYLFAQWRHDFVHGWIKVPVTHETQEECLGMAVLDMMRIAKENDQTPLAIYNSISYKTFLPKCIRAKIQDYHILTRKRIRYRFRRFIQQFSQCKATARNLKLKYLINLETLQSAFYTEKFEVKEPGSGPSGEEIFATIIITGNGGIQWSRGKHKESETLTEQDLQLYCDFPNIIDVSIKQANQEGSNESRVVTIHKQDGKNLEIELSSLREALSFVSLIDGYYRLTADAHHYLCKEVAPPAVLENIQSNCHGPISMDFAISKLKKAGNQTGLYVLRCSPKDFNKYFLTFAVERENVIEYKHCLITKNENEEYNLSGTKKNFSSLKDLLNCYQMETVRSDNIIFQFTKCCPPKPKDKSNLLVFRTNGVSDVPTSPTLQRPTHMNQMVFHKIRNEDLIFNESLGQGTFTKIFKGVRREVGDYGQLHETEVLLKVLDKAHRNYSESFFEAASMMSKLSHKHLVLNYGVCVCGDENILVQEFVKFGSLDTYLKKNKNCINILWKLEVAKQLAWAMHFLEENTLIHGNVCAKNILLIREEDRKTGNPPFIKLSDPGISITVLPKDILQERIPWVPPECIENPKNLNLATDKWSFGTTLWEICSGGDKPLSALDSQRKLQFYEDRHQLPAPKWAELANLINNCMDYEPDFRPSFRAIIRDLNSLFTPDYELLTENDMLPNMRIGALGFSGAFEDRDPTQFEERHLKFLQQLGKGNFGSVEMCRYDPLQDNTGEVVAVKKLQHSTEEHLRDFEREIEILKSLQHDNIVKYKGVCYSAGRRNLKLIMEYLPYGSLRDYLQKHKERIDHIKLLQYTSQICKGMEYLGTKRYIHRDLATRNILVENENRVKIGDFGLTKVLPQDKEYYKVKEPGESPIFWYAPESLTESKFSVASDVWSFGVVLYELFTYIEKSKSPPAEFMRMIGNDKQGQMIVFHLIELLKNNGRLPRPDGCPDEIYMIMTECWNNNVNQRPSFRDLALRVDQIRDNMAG
T4 sequence (Q9HBH9 whole entry): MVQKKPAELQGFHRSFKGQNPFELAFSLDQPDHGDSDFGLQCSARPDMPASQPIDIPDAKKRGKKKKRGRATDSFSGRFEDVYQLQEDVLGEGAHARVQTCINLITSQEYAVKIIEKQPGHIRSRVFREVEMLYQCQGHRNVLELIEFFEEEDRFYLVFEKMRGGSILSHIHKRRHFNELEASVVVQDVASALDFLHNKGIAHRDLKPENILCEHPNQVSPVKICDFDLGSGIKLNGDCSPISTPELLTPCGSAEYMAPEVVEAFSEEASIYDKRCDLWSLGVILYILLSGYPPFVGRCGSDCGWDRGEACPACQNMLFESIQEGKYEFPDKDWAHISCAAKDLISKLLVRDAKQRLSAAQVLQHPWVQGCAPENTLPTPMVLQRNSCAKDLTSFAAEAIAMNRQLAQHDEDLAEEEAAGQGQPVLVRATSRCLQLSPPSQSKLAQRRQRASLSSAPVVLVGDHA
T1 sequence (Q14994 with tags, fused parts or gaps isoform Q14994-8 DEL233-236): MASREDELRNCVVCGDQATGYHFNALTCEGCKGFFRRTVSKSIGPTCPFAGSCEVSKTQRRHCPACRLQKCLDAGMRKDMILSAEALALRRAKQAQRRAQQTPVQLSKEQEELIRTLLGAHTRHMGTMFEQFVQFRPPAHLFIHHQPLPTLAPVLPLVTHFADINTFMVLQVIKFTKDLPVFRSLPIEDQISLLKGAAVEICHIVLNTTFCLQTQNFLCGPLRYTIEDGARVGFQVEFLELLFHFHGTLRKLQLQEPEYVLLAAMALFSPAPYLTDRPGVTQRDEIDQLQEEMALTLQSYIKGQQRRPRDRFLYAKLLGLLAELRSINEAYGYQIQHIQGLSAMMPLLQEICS
T1 sequence (P19793 whole entry partner): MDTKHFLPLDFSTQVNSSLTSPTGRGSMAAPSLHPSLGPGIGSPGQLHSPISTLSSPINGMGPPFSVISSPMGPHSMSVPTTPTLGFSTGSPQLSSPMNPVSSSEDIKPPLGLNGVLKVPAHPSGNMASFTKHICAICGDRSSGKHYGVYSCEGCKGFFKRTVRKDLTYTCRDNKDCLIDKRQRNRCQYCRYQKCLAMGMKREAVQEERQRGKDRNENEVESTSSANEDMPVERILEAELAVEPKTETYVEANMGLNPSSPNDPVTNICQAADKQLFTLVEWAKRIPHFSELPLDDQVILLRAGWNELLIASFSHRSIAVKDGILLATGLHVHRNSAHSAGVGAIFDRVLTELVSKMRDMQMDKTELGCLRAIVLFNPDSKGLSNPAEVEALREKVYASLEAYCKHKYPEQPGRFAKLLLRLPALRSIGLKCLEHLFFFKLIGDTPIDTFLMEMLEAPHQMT
Sequence of EphA5(h) (P54756 25-1037): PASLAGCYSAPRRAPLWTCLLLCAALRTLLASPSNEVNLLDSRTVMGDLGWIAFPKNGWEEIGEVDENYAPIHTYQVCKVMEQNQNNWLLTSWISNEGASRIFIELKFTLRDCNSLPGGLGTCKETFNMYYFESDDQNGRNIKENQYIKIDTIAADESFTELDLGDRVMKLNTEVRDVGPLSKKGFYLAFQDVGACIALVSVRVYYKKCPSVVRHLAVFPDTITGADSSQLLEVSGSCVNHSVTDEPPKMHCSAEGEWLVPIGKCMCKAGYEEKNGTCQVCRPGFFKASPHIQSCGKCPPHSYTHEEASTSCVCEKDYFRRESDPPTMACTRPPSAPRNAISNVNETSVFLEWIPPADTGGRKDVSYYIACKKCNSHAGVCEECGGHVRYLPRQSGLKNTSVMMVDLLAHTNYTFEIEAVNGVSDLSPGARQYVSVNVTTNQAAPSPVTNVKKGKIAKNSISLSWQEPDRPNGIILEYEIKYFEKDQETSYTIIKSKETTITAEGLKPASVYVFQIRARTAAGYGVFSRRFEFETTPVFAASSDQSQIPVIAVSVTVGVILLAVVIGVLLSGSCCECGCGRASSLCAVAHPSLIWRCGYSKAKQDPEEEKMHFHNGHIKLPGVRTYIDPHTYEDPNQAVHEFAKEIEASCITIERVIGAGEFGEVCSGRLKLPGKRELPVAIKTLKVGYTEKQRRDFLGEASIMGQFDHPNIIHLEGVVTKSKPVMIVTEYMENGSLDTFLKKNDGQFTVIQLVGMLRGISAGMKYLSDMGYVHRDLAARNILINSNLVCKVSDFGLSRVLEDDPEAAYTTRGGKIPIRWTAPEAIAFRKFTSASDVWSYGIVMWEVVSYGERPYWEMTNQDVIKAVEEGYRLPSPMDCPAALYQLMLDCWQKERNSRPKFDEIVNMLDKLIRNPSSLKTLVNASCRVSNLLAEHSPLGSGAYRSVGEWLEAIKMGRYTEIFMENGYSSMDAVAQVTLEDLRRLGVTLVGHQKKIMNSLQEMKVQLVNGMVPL

| activation of CAR3 variant [1] | half-life [2] [min] | activity on rodent PXRs [5] | activity at 1 µM [6] [%] | activity at 1 µM [7] [%] | activity at 1 µM [8] [%] | activity at 1 µM [9] [%] | activity at 1 µM [10] [%] | activity at 1 µM [11] [%] | activity at 1 µM [12] [%] | activity at 1 µM [13] [%] | IC50 ([14]; IC50, antagonistic activity for rifampicin (1 μM)-activated PXR, rifampicin 1 μM, HepG2) [µM] | IC50 ([14]; IC50, antagonistic mode, MI891 + Rif-5 μM, rifampicin 5 μM, HepG2) [µM] | IC50 ([14]; PXR antagonism: PXR inhibition (IC50, μM), antagonist mode with 10 μM rifampicin, mean ± SD, n = 3) | PXR-HiBiT degradation [15] | PXR agonistic activity [16] | Compound | agonistic or antagonistic activity on LXRβ [3] | agonistic or antagonistic activity on PPARα [4] |
| --- | --- | --- | --- | --- | --- | --- | --- | --- | --- | --- | --- | --- | --- | --- | --- | --- | --- | --- |
| no significant activation | > 120 | no activities | 109 | 106 | 101 | 86 | 90 | 109 | 98 | 101 | 0.378 | 3.5 | 3.8 µM and 3.76 µM |  |  | NC(=O)c1cc(Cn2cc(-c3c(-c4ccc(Cl)cc4)nc4c(F)cc(F)cn34)nn2)ccc1Cl [Compound 11, 2-Chloro-5-((4-(2-(4-chlorophenyl)-6,8-difluoroimidazo[1,2-a]pyridin-3-yl)-1H-1,2,3-triazol-1-yl)methyl)-benzamide] | no significant agonistic or antagonistic activities | no significant agonistic or antagonistic activities |
|  |  |  |  |  |  |  |  |  |  |  |  |  |  | confirmed PXR degradation | did not exhibit agonistic activity | N-(4-((1-(2,5-dimethoxyphenyl)-5-methyl-1H-1,2,3-triazol-4-yl)sulfonyl)phenyl)-3-(2-(2-(2-(4-(((2-(2,6-dioxopiperidin-3-yl)-1,3-dioxoisoindolin-4-yl)amino)methyl)-1H-1,2,3-triazol-1-yl)ethoxy)ethoxy)ethoxy)propenamide [Compound 36] |  |  |
